This is an account of results in patent US20100239652A1, “IMMUNOLIPOSOMES FOR TREATMENT OF CANCER” (UNIVERSITATSSPITAL BASEL, priority 2008, published 2010).

In brackets after ≈: the same amount, converted by molar mass.

One assay has as its system HT-29 RDB. Nature of the assay: Cytotoxicity study, MTT staining. The class given is cell-based, human. How it is done: (§1) Specific cytotoxicity of EGFR-targeted immunoliposomes containing doxorubicin was evaluated in target cells plated at a density of 8,000 cells per well in 96-well plates and allowed to grow overnight. Immunoliposomes or control treatments were applied for 2 h at 37° C., followed by washing with PBS and re-adding growth media. Cells were further incubated at 37 DC for 3 days and analyzed for cell viability using 3-(4,5-dimethylthiazol-2-yl)-2,5-diphenyl tetrazolium bromide (MTT) staining (41). For the cytotoxicity studies using the efflux pump inhibitor verapamil, this compound was added to the media at a concentration of 100 μM during the complete experiment.

Another assay concerns HT-29 WT. Nature of the assay: Cytotoxicity study, MTT staining. The format is cell-based, human. The procedure: as §1
For the next assay, the system named is MDA-MB-231 Vb100. Nature of the assay: Cytotoxicity study, MTT staining. The format is cell-based, human. The procedure:
as §1

A further assay relates to MDA-MB-231/mdr cells. The assay is described as follows: Accumulation of doxorubicin in the cytoplasma and nuclei. The class given is cell-based, human. Particulars: multidrug resistant tumor cells. The procedure:
For comparative accumulation studies, tumor cells (HT-29, HT-29 ROB, MDA-MB-231 or MDA-MB-231 Vb100) have been plated at a density of 200,000 cells per well in 12-well plates. Free doxorubicin, non-targeted liposomal doxorubicin (PLD) and immunoliposomal doxorubicin have been applied at a doxorubicin concentration of 3 μg/ml for 2 h at 37° C., followed by 2 washing rounds with media. Verapamil was added to the experiment in a concentration of 0, 10 or 100 μM. After another 2 h incubation without any treatment cells were analyzed as follows:
After removing the media, cells were washed once with 1 ml of culture medium containing FCS, followed by 1 ml of PBS with calcium and magnesium at room temperature (RT) for 3 min. […] For nuclear accumulation of doxorubicin the pellet with the nuclei was washed twice with 500 μl PBS containing 1% C100T and using subsequent centrifugation as described before. After careful removing of the final supernatant, doxorubicin from the pellets was extracted overnight by 400 μl 50% acid methanol.
From both cytoplasmic and nuclear extracts, 300 μl were transferred into a 96-well plate and measured by a “SpertraMax Gemini Fluorimeter” (Molecular Devices).

The subject of assay [1] is MDA-MB-231 wild type xenograft. Nature of the assay: Tumor xenograft model, wild type. The class given is in vivo. Particulars: for antitumor effect (tumor growth): i.v. 10 mg doxorubicin/kg once weekly for 3 weeks, total 30 mg dox/kg, compared to saline. The procedure: (§2) Efficacy for non-targeted liposomes versus anti-EGFR immunoliposomes were studied in the MDA-MB-231 wild type and resistant breast cancer xenograft tumor model. Swiss nu/nu mice (5-6 weeks; Charles River, France) were injected subcutaneously (s.c.) with EGFR-overexpressing MDA-MB-231 tumor cells (1×10^7 cells, wild type or resistant) into the back of the animal. […] Free drug was injected on the same schedule as liposomes or immunoliposomes intravenously at their MTD of 30 mg dox/kg for doxorubicin. In control groups, saline was administered intravenously at the same injection volume and schedule.
(§3) Tumor growth was monitored for a period of 55-100 days post tumor implantation. Mice were weighted and examined for toxicity three times a week. Tumor measurements were performed 2-3 times weekly using a caliper, and tumor volumes were calculated using the equation: (length × width^2)/2.
In the wild-type MDA-MB-231 xenograft model lacking mdr features, anti-EGFR immunoliposome-dox was administered i.v. at a total dose of 30 mg dox/kg divided into three weekly doses of 10 mg/kg. […] Control treatments included: saline; free doxorubicin and non-targeted liposomal doxorubicin (commercial pegylated liposomal doxorubicin; PLD) at the same dose and schedule as immunoliposomes.
(§4) In addition, a multivariate (rank) test was performed based on the sums of ranks for each mouse. Tumor size at each time point after last treatment was ranked across all mice for that day and the ranks were summed. The sum of the ranks was compared in each case for two treatments by a 2-sample t-test (42).

Assay [2] has as its system MDA-MB-231 Vb100 xenograft. The assay is described as follows: Tumor xenograft model, multi-drug resistant. The class given is in vivo. Particulars: i.v. 10 mg doxorubicin/kg once weekly for 3 weeks, total 30 mg dox/kg, compared to saline. How it is done: as §2, §3
Comparators included saline, free doxorubicin and non-targeted liposomal doxorubicin (commercial pegylated liposomal doxorubicin; PLD) at the same dose and schedule as immunoliposomes.
as §4

`COc1cccc2c1C(=O)c1c(O)c3c(c(O)c1C2=O)C[C@@](O)(C(=O)CO)C[C@@H]3O[C@H]1C[C@H](N)[C@H](O)[C@H](C)O1` [free dox, doxorubicin]: the IC50 in the assay with HT-29 RDB (HT-29/mdr cells, summary in description) turned out to be 6.0 μg dox/ml; in the assay on HT-29 RDB (treatment for 2 h, MTT after 3 days, multi-drug resistant sub cell line) it was 9.5 µg/mL (≈ 17.5 µM); with HT-29 WT (non-resistant HT-29 cells, summary in description), 0.36 μg dox/ml; in the assay with HT-29 WT (treatment for 2 h, MTT after 3 days), 0.3 µg/mL (≈ 0.552 µM); with MDA-MB-231 Vb100 (highly drug resistant, 2 h treatment, MTT after 3 days) it was 130 µg/mL (≈ 239 µM); in the assay on MDA-MB-231 Vb100 (in the presence of verapamil (100 μM)) it was 0.9 µg/mL. In the assay with MDA-MB-231/mdr cells, the intracellular distribution entry was “efficiently pumped out”. Besides, the “antitumor effect (tumor growth)” value in assay [1] was “some tumor growth inhibition”; in assay [2] it was “failed to show any activity”; in assay [2] (listed as free doxorubicin) it was “did not show any tumor growth inhibition”.

B1: EMD72000-ILs-dox (conjugate, chains of the INN, looked up)
VH: QVQLVQSGAEVKKPGASVKVSCKASGYTFTSHWMHWVRQAPGQGLEWIGEFNPSNGRTNYNEKFKSKATMTVDTSTNTAYMELSSLRSEDTAVYYCASRDYDYDGRYFDYWGQGTLVTVSS
VL: DIQMTQSPSSLSASVGDRVTITCSASSSVTYMYWYQQKPGKAPKLLIYDTSNLASGVPSRFSGSGSGTDYTFTISSLQPEDIATYYCQQWSSHIFTFGQGTKVEIK
modifications: doxorubicin-loaded immunoliposomes
As to B1, the “tumor regrowth during follow-up” value in assay [1] (after day 77 until end of observation (day 100)) was “did not show growth activity”. Also, the “antitumor effect (tumor growth)” value in assay [1] and in assay [2] was “substantial tumor regressions” each time.
